Literature values as cited in PubChem BioAssay AID1259409 (Chemical Carcinogenesis Research Information System (CCRIS), 2018).

System: rodent chemically induced tumor inhibition, incidence and multiplicity
Assay: CCRIS tumor inhibitor studies
Conditions: for tumour outcome (control, treated, inhibition, significance): Route [Inhibitor]: ORAL, Species: RAT, Strain/Sex: SPRAGUE-DAWLEY/FEMALE; for outcome: Route [Inhibitor]: Oral

## C[Se]C#N
Carcinogen: 7,12-DIMETHYLBENZ[A]ANTHRACENE, 57-97-6, Dose [Inhibitor]: 0, 1 PPM (AS SELENIUM) IN DIET BEGINNING 2 WK PRIOR TO CARCINOGEN DOSE AND CONTINUING FOR DURATION OF STUDY (STUDY DURAT, Target Tissue: Type of Lesion: MAMMARY GLAND: ADENOCARCINOMA, Dose [Carcinogen]: 10 MG ONCE AT 55 D OF AGE, Promoter: NONE USED
  tumour outcome (control, treated, inhibition, significance): 88%, 64%, 27%, not significant
Carcinogen: 7,12-DIMETHYLBENZ[A]ANTHRACENE, 57-97-6, Dose [Inhibitor]: 0, 2 PPM (AS SELENIUM) IN DIET BEGINNING 2 WK PRIOR TO CARCINOGEN DOSE AND CONTINUING FOR DURATION OF STUDY (STUDY DURAT, Target Tissue: Type of Lesion: MAMMARY GLAND: ADENOCARCINOMA, Dose [Carcinogen]: 10 MG ONCE AT 55 D OF AGE, Promoter: NONE USED
  tumour outcome (control, treated, inhibition, significance): 88%, 52%, 41%, p<0.05
Carcinogen: 7,12-DIMETHYLBENZ[A]ANTHRACENE, 57-97-6, Dose [Inhibitor]: 0, 3 PPM (AS SELENIUM) IN DIET BEGINNING 2 WK PRIOR TO CARCINOGEN DOSE AND CONTINUING FOR DURATION OF STUDY (STUDY DURAT, Target Tissue: Type of Lesion: MAMMARY GLAND: ADENOCARCINOMA, Dose [Carcinogen]: 10 MG ONCE AT 55 D OF AGE, Promoter: NONE USED
  tumour outcome (control, treated, inhibition, significance): 88%, 40%, 55%, p<0.05
Carcinogen: 7,12-DIMETHYLBENZ[A]ANTHRACENE, 57-97-6, Dose [Inhibitor]: 0.1, 2 PPM (SELENIUM) IN DIET FOR 3 WK BEGINNING 2 WK PRIOR TO CARCINOGEN DOSE (STUDY DURATION: 25 WK), Target Tissue: Type of Lesion: MAMMARY GLAND: TUMOR, Dose [Carcinogen]: 10 MG ONCE, Promoter: NONE USED
  tumour outcome (control, treated, inhibition, significance): 25/30 (83%), 19/30 (63%), 24%, not significant

## C=CCS(=O)(=O)CC=C
Carcinogen: Vinyl carbamate, 15805-73-9, Dose [Inhibitor]: 50 mg/kg once at beginning of experiment (Study duration: 25 wk), Species: Mouse, Strain/Sex: F1 (Big Blue x A/J), Target Tissue: Type of Lesion: Lung: Papilliary tumors and solid tumors, Dose [Carcinogen]: 60 mg/kg once 2 hr after inhibitor (Study duration: 25 wk), Promoter: None
  outcome: papilliary tumors: 84 (58%), 21 (13.5%), p<0.01 (significant decrease). solid tu

## O=NO
Carcinogen: 2-AMINO-1-METHYL-6-PHENYL-1H-IMIDAZO[4,5-B]PYRID INE, 105650-23-5, Dose [Inhibitor]: 0, 0.2% IN DRINKING WATER FOR 4 WK BEGINNING AT 6 WK OF AGE (STUDY DURATION: 48 WK), Target Tissue: Type of Lesion: MAMMARY GLAND: ADENOCARCINOMA, Dose [Carcinogen]: 100 MG/KG BW 2/WK FOR 4 WK CONCURRENT WITH INHIBITOR, Promoter: NONE USED
  tumour outcome (control, treated, inhibition, significance): 11/20 (55%), 6/10 (60%), -9%, not significant
Carcinogen: 2-AMINO-1-METHYL-6-PHENYL-1H-IMIDAZO[4,5-B]PYRID INE, 105650-23-5, Dose [Inhibitor]: 0, 0.2% IN DRINKING WATER FOR 4 WK BEGINNING AT 6 WK OF AGE (STUDY DURATION: 48 WK), Target Tissue: Type of Lesion: MAMMARY GLAND: FIBROADENOMA, Dose [Carcinogen]: 100 MG/KG BW 2/WK FOR 4 WK CONCURRENT WITH INHIBITOR, Promoter: NONE USED
  tumour outcome (control, treated, inhibition, significance): 3/20 (15%), 2/10 (20%), -33%, not significant
Carcinogen: 2-Amino-1-methyl-6-phenylimidazo[4,5-b]pyridine (105650-23-5), Dose [Inhibitor]: 0.2% in drinking water for 4 wk (Study duration 48 wk), Species: Rat, Strain/Sex: Sprague Dawley/Female, Target Tissue: Type of Lesion: Mammary gland: Carcinoma, Dose [Carcinogen]: 100 mg/kg twice a wk for 4 wk (Test material solvent: corn oil), Promoter: None used
  outcome: 11/20 (55%), 6/10 (60%), not significant
Carcinogen: 2-Amino-1-methyl-6-phenylimidazo[4,5-b]pyridine (105650-23-5), Dose [Inhibitor]: 0.2% in drinking water for 4 wk (Study duration 48 wk), Species: Rat, Strain/Sex: Sprague Dawley/Female, Target Tissue: Type of Lesion: Mammary gland: Fibroadenoma, Dose [Carcinogen]: 100 mg/kg twice a wk for 4 wk (Test material solvent: corn oil), Promoter: None used
  outcome: 3/20 (15%), 2/10 (20%), not significant

## Oc1ccc(C2=Cc3ccc(O)cc3OC2)cc1
Carcinogen: 7,12-DIMETHYLBENZ[A]ANTHRACENE, 57-97-6, Dose [Inhibitor]: 0, 50 MG/KG IN DIET FOR 117 D (STUDY DURATION: 117 D), Target Tissue: Type of Lesion: MAMMARY GLAND: TUMOR, Dose [Carcinogen]: 15 MG IN SESAME OIL, ONCE, 7 D AFTER FIRST INHIBITOR DOSE
  tumour outcome (control, treated, inhibition, significance): 15/16 (94.7%), 12/18 (65%), 31.4%, p< 0.05
Carcinogen: 7,12-DIMETHYLBENZ[A]ANTHRACENE, 57-97-6, Dose [Inhibitor]: 0, 75 MG/KG IN DIET FOR 117 D (STUDY DURATION: 117 D), Target Tissue: Type of Lesion: MAMMARY GLAND: TUMOR, Dose [Carcinogen]: 15 MG IN SESAME OIL, ONCE, 7 D AFTER FIRST INHIBITOR DOSE
  tumour outcome (control, treated, inhibition, significance): 15/16 (94.7%), 12/17 (70%), 26.1%, p< 0.05
